Source: US8604016B2, “Heterocyclic inhibitors of glutaminase” (Calithera Biosciences Inc., priority 2011, dated 2013)

Molecular target: recombinant form of Glutaminase 1 (GAC) (Homo sapiens, UniProt O94925)
Experiment: Recombinant Enzyme Assay (GAC coupled to GDH, NADH absorbance, no preincubation)
Type: biochemical
Conditions: no preincubation; read-out: GAC Delta N2 IC50 no preinc
Description: Enzymatic reaction was started with the addition of 50 μL of enzyme solution (50 mM Tris-HCl pH 8.0, 0.2 mM EDTA, 150 mM K2HPO4, 0.1 mg/ml BSA, 1 mM DTT, 10 ppm antifoam, 4 units/ml GDH, 4 mM adenosine diphosphate, and 4 nM GAC) and read in a Molecular Devices M5 plate reader at 20° C. The plate reader was configured to read absorbance (λ=340 nm) in kinetic mode for 15 minutes. Data was recorded as milli-absorbance units per minute and slopes were compared to a control compound and a DMSO-only control on the same plate. Compounds with slopes less than the DMSO control were considered inhibitors and plate variability was assessed using the control compound.

IC50 [µM] | Structure (SMILES)
0.34 | COc1ccc(CC(=O)Nc2nnc(CCSCCc3nnc(NC(=O)Cc4ccc(OC)c(OC)c4)s3)s2)cc1OC [Compound 157]
> 20 | O=C(Nc1nnc(CCCCc2nnc(NC(=O)C(F)(F)c3ccccc3)s2)s1)C(F)(F)c1ccccc1 [Compound 303]
> 20 | CC(C)(C)OC(=O)Nc1cccc(CC(=O)Nc2nnc(CCSCCc3nnc(NC(=O)Cc4cccc(NC(=O)OC(C)(C)C)c4)s3)s2)c1 [Compound 98]
0.24 | O=C(Cc1c(F)cccc1F)Nc1nnc(CCCCc2nnc(NC(=O)Cc3c(F)cccc3F)s2)s1 [Compound 293]
0.12 | O=C(Cc1ccccc1F)Nc1nnc(CCCCc2nnc(NC(=O)Cc3ccccc3F)s2)s1 [Compound 292]
0.28 | O=C(Cc1ccccc1)Nc1nnc(CCSCc2nnc(NC(=O)[C@@H](O)c3ccccc3)s2)s1 [Compound 377]
0.22 | O=C(Cc1ccccc1)Nc1nnc(CCSCc2nnc(NC(=O)Cc3cccc(OCCN4CCOCC4)c3)s2)s1 [Compound 378]
1.3 | O=C1CC(C(=O)Nc2nnc(CCCCc3nnc(NC(=O)C4CC(=O)c5ccccc54)s3)s2)c2ccccc21 (stereo not drawn) [Compound 64]
1.2 | O=C(Cc1ccccc1)Nc1nnc(CCCCc2nnc(NC(=O)[C@@H]3CCCC[C@H]3C(O)c3ccccc3)s2)s1 (stereo partly drawn) [Compound 304]
12 | CC1(C(=O)Nc2nnc(CCCCc3nnc(NC(=O)C4(C)CCCO4)s3)s2)CCCO1 (stereo not drawn) [Compound 123]
> 20 | O=C(CC1CCNCC1)Nc1nnc(CCCCc2nnc(NC(=O)CC3CCNCC3)s2)s1 [Compound 132]
24 | COCCC(=O)Nc1nnc(CCSCCc2nnc(NC(=O)CCOC)s2)s1 [Compound 101]
> 50 | Nc1nnc(CCSCCc2nnc(NC(=O)[C@@H]3CCCN3C(=O)C(F)(F)F)s2)s1 [Compound 23]
11 | CC(C(=O)Nc1nnc(CCSCCc2nnc(NC(=O)C(C)c3ccccc3)s2)s1)c1ccccc1 (stereo not drawn) [Compound 19]
> 20 | C=CCC(C(=O)Nc1nnc(CCCCc2nnc(NC(=O)C(CC=C)c3ccccc3)s2)s1)c1ccccc1 (stereo not drawn) [Compound 209]
> 20 | O=C(Nc1nnc(CCCCc2nnc(NC(=O)[C@@H]3CC3c3ccccc3)s2)s1)C1CC1c1ccccc1 (stereo partly drawn) [Compound 90]
> 50 | COC(=O)c1cccc(NC(=O)Nc2nnc(CCSCCc3nnc(NC(=O)Nc4cccc(C(=O)OC)c4)s3)s2)c1 [Compound 31]
0.73 | O=C(Cc1c(F)cccc1F)Nc1nnc(CCSCCc2nnc(NC(=O)Cc3c(F)cccc3F)s2)s1 [Compound 298]
0.1 | COc1ccc(OC)c(CC(=O)Nc2nnc(CCCCc3nnc(NC(=O)Cc4ccccc4)s3)s2)c1 [Compound 271]
0.58 | CS(=O)(=O)c1ccc(CC(=O)Nc2nnc(CCSCCc3nnc(NC(=O)Cc4ccc(S(C)(=O)=O)cc4)s3)s2)cc1 [Compound 182]
4.3 | CCC(C)C(=O)Nc1nnc(CCCCc2nnc(NC(=O)C(C)CC)s2)s1 (stereo not drawn) [Compound 107]

IC50 [µM] | Structure (SMILES)
0.38 | O=C(Nc1nnc(CCCCc2nnc(NC(=O)C(O)(CO)c3ccccc3)s2)s1)C(O)(CO)c1ccccc1 (stereo not drawn) [Compound 278]
26 | O=C(Nc1nnc(CCSCCc2nnc(NC(=O)C3CCCO3)s2)s1)C1CCCO1 (stereo not drawn) [Compound 39]
6.6 | CC(C(=O)Nc1nnc(CCSCCc2nnc(N)s2)s1)c1ccccc1 (stereo not drawn) [Compound 20]
15 | O=C(Cc1ccccc1)Nc1nnc(CCNCCc2nnc(NC(=O)Cc3ccccc3)s2)s1 [Compound 149, N,N′-(5,5′-(azanediyl-bis(ethane-2,1-diyl))-bis(1,3,4-thiadiazole-5,2-diyl))-bis(2-phenylacetamide) trifluoroacetic acid]
0.16 | COc1ccc(CC(=O)Nc2nnc(CCCCc3nnc(NC(=O)Cc4ccc(OC)c(OC)c4)s3)s2)cc1OC [Compound 160]
3.5 | O=C(Nc1nnc(CCCCc2nnc(NC(=O)C3Cc4cc(Br)ccc4O3)s2)s1)C1Cc2cc(Br)ccc2O1 (stereo not drawn) [Compound 122]
> 20 | CC1(C(=O)Nc2nnc(CCSCCc3nnc(NC(=O)C4(C)CCCO4)s3)s2)CCCO1 (stereo not drawn) [Compound 119]
0.68 | CC1(C)OCC(C(=O)Nc2nnc(CCCCc3nnc(NC(=O)Cc4ccccc4)s3)s2)(c2ccccc2)O1 (stereo not drawn) [Compound 279]
> 50 | CC(C)(C)OC(=O)N[C@@H](C(=O)Nc1nnc(CCSCCc2nnc(NC(=O)[C@H](NC(=O)OC(C)(C)C)c3ccccc3)s2)s1)c1ccccc1 [Compound 46]
16 | O=C(Nc1nnc(CCSCCc2nnc(NC(=O)c3cc4ccccc4o3)s2)s1)c1cc2ccccc2o1 [Compound 215]
0.29 | O=C(Nc1nnc(CCCCc2nnc(NC(=O)C(O)c3ccccc3)s2)s1)C(O)c1ccccc1 (stereo not drawn) [Compound 174]
6.3 | N[C@H](C(=O)Nc1nnc(CCSCCc2nnc(NC(=O)[C@@H](N)c3ccccc3)s2)s1)c1ccccc1 [Compound 175]
0.26 | O=C(Cc1ccccc1)Nc1nnc(CCCCc2nnc(NC(=O)OCc3ccccc3)s2)s1 [Compound 374]
0.1 | O=C(Cc1ccccc1)Nc1nnc(CCCCc2nnc(NC(=O)Cc3ccccc3CO)s2)s1 [Compound 333]
0.14 | O=C(Cc1cccc(F)c1)Nc1nnc(CCCCc2nnc(NC(=O)Cc3cccc(F)c3)s2)s1 [Compound 273]
1.3 | O=C(Nc1nnc(CCCCc2nnc(NC(=O)C3(c4ccccc4)CC3)s2)s1)C1(c2ccccc2)CC1 [Compound 168]
0.82 | NCCC(C(=O)Nc1nnc(CCSCCc2nnc(NC(=O)C(CN)c3ccccc3)s2)s1)c1ccccc1 (stereo not drawn) [Compound 214]
> 50 | CC(CCc1nnc(NC(=O)Cc2ccccc2)s1)CCc1nnc(NC(=O)Cc2ccccc2)s1 [Compound 9]
> 20 | CC(=O)OC(C(=O)Nc1nnc(CCCc2nnc(NC(=O)C(OC(C)=O)c3ccccc3)s2)s1)c1ccccc1 (stereo not drawn) [Compound 171]
15 | O=C(Cc1cc2ccccc2s1)Nc1nnc(CCCCc2nnc(NC(=O)Cc3cc4ccccc4s3)s2)s1 [Compound 233]

Structure (SMILES) | IC50 [µM]
O=C(Cc1cccc(-c2cccnc2)c1)Nc1nnc(CCCCc2nnc(NC(=O)Cc3cccc(-c4cccnc4)c3)s2)s1 [Compound 312] | > 20
Cc1cccc(CC(=O)Nc2nnc(CCSCCc3nnc(NC(=O)Cc4cccc(C)c4)s3)s2)c1 [Compound 247] | 0.19
COc1cccc(C(CO)C(=O)Nc2nnc(CCCCc3nnc(NC(=O)C(CO)c4cccc(OC)c4)s3)s2)c1 (stereo not drawn) [Compound 257] | 0.12
COc1ccccc1CC(=O)Nc1nnc(CCSCc2nnc(NC(=O)Cc3ccccc3OC)s2)s1 [Compound 249] | 0.12
O=C(Cc1cccc(OCCN2CCOCC2)c1)Nc1nnc(CCSCc2nnc(NC(=O)Cc3cccc(OCCN4CCOCC4)c3)s2)s1 [Compound 267] | 0.61
O=C(Cc1cccc(Br)c1)Nc1nnc(CCCCc2nnc(NC(=O)Cc3cccc(Br)c3)s2)s1 [Compound 284] | > 20
O=C(CN1C(=O)OC[C@@H]1c1ccccc1)Nc1nnc(CCSCCc2nnc(NC(=O)CN3C(=O)OC[C@@H]3c3ccccc3)s2)s1 [Compound 197] | 6.9
CC(=O)NCC(C(=O)Nc1nnc(CCSCCc2nnc(NC(=O)C(CNC(C)=O)c3ccccc3)s2)s1)c1ccccc1 (stereo not drawn) [Compound 232] | 9.8
COc1cccc(CC(=O)Nc2nnc(CCCCc3nnc(NC(=O)Cc4cccc(OC)c4OC)s3)s2)c1OC [Compound 260] | 0.15
O=C(Cc1cccc(-n2cccn2)c1)Nc1nnc(CCCCc2nnc(NC(=O)Cc3cccc(-n4cccn4)c3)s2)s1 [Compound 285] | 0.19
